What was measured:
[1] = tested on: angiogenesis; details: cited from earlier work
[2] = tested on: stratum corneum of hairless rats; experiment: Exfoliating activity in vivo after topical application on the back of hairless rats, histological evaluation; parameters: species or system rat; details: ten hairless rats, 10% CaTFA gel topical two times a day for ten days
Description: The formulations used had the following composition: Medicated formulation (D) CaTFA 10.00 g, Xanthan gum 2.00 g, Water q.s. to 100.00 g. Vehicle (V): Xanthan gum 2.00 g, Water q.s. to 100.00 g.
The experiments were carried out on 4 weeks old hairless male rats (HsdHanTM:RNU—Foxnl rnu, Harlan Italy srl, Correzzana, Italy). The back of ten rats was divided in two parts (section area: 2.5×3.0 cm) for topical application of the test formulations. A volume of 200 μl of the medicated formulation or the vehicle was applied two times a day for ten days. Fifteen hours after the last administration, the animals were sacrificed by cervical dislocation and the portion of skin submitted to the treatment was excised, carefully rinsed to remove the remaining formulation and submitted to histological evaluation. A sample of untreated skin of each animal was used as control (C). The histological evaluation was done as follows: the skin samples were fixed in 10% buffered formalin solution, dehydrated and embedded in JB-4 plastic resin. Coronal sections were cut by a microtome (Reichert-Jung) and mounted onto gelatin coated slides. Sections were stained with methylene blue/toluidine blue for microscopic examination to verify the absence of stratum corneum and the condition of the other parts of the skin. The specimens were assessed under Leitz Diaplan microscope.

[3] = tested on: tumor growth; details: animal experimental models; cited from earlier work
[4] = tested on: solid tumor cells; details: in vitro; cited from earlier work
[5] = known; cited from earlier work

Row | SMILES | antiangiogenetic activity [1] | effective as keratolytic agent, share of treated animals [2] [%] | tumor growth [3] | cytotoxic activity [4] | toxicity [5]
1 | O=C([O-])C(F)(F)F.O=C([O-])C(F)(F)F.[Ca+2] [Calcium trifluoroacetate] | relevant antiangiogenetic activity | 70 | inhibit tumor growth | in vitro cytotoxic activity on solid tumor cells | 
2 | O=C([O-])C(F)(F)F.[Na+] [NaTFA, Sodium Trifluoroacetate] |  |  |  |  | devoid of significant toxicity
